This note sets out measurements from US20060247250A1 (TargeGen, Inc., priority 2005, published 2006).

The term pIC50 denotes the IC50 on a negative log10 scale, so that one unit is a factor of ten.

Common to all, as to format: biochemical
The target in one assay is T1, human Yes (Homo sapiens, UniProt P07947).
T1 construct: purchased Panvera/Invitrogen
Briefly: Yes kinase inhibition, luciferase-based residual ATP (KinaseGlo). As to conditions: recombinant human Yes, ATP 3 μM, PTK2 substrate, 90 minutes at room temperature. How it is done: (§1) The ability of compounds of the present invention to inhibit the activity of three groups of kinases was tested. Kinases tested included the src family (primarily src and yes), the angiogenic growth factors receptors (FGFR1, PDGFRb and VEGFR2) and the ephrin, EphB4. All kinase reactions were conducted in 96-well plates with a final reaction volume of 50 ul.
(§2) Recombinant human c-Src or Yes (28 ng/well, Panvera/Invitrogen, Madison Wis.), ATP (3 μM), a tyrosine kinase substrate (PTK2, 250 μM, Promega Corp., Madison Wis.), and test agents (at concentrations ranging from about 1 nM/l to about 100 μM/1), in the presence of Src kinase reaction buffer (Upstate USA, Lake Placid N.Y.). After reacting for about 90 minutes at room temperature, residual ATP was determined using a luciferase-based assay (KinaseGlo, Promega Corp.) as a measure of kinase activity. Data from four wells were then averaged and used to determine IC50 values for the test compounds (Prism software package, GraphPad Software, San Diego Calif.).
(In general: Kinase-Glo reads ATP consumption through a luciferase reaction.)

A further assay has as its target T2, FGFR1 (Homo sapiens, UniProt P11362).
T2 construct: purchased Panvera/Invitrogen
Briefly: FGFR1 kinase assay, residual ATP luminescence. As to conditions: poly(glu4tyr), 2.5 uM ATP, 60 minutes at 37 C. How it is done:
as §1
(§3) FGFR1 and VEGFR2 kinase assays were similarly performed. FGFR1 (76 ng/well, Panvera/Invitrogen) was combined with 12.5 mg/ml poly(glu4tyr) (Sigma) and 2.5 uM ATP. VEGFR2 (14.1 U/well, Cell Signaling/ProQinase) was used with 0.3 mg/ml poly(glu4tyr) and 1.5 uM ATP. Both were incubated for 60 minutes at 37 C, and the residual ATP was measured via luminescence, per the procedure described above.

In a further assay the target is T3, PDGFRb (Homo sapiens, UniProt P09619).
T3 construct: purchased Panvera/Invitrogen
T3 sequence (P09619 33-1106, species assumed): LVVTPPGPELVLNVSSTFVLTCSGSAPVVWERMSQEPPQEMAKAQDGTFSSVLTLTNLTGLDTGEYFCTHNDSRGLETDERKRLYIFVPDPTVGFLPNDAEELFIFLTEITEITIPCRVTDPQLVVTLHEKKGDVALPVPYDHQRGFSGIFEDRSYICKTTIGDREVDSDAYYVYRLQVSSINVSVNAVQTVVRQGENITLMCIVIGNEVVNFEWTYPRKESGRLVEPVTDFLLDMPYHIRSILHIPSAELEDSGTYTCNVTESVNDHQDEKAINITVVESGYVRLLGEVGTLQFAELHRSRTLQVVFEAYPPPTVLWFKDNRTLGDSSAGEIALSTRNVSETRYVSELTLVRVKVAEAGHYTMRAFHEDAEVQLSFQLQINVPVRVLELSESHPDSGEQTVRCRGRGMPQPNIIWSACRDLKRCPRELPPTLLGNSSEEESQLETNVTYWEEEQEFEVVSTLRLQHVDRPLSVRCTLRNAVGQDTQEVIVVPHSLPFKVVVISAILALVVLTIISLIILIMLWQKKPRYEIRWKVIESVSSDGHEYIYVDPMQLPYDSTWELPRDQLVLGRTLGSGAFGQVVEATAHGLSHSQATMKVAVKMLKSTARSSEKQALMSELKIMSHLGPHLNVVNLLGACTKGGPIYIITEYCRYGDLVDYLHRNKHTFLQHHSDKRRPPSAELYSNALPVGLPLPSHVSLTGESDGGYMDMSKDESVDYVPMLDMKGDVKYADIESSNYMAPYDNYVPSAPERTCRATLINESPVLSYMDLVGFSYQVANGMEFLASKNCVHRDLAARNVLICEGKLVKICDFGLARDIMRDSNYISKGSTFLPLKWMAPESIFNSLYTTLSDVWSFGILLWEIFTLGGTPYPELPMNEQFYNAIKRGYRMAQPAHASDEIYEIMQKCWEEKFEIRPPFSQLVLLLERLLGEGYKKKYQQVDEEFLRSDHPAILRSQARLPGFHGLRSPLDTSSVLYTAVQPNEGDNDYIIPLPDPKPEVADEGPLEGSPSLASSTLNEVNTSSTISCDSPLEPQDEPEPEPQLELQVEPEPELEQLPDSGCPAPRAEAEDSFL
Briefly: PDGFRb kinase assay, residual ATP luminescence. As to conditions: PTK2 peptide, 500 nM ATP, 60 minutes at 37 C; read-out: Pdgfrβ IC50. How it is done:
as §1
PDGFRb (0.16 ug/well, Panvera/Invitrogen) 500 nM ATP and the PTK2 peptide (700 uM) were combined with compound and reaction buffer as noted above for src. The reaction was incubated for 60 minutes at 37 C, and the residual ATP concentration was determined using the luciferase-based technique also noted above.

For another assay, the target named is T4, VEGFR2 (Homo sapiens, UniProt P35968).
T4 construct: purchased Cell Signaling/ProQinase
T4 sequence (P35968 20-1356, species assumed): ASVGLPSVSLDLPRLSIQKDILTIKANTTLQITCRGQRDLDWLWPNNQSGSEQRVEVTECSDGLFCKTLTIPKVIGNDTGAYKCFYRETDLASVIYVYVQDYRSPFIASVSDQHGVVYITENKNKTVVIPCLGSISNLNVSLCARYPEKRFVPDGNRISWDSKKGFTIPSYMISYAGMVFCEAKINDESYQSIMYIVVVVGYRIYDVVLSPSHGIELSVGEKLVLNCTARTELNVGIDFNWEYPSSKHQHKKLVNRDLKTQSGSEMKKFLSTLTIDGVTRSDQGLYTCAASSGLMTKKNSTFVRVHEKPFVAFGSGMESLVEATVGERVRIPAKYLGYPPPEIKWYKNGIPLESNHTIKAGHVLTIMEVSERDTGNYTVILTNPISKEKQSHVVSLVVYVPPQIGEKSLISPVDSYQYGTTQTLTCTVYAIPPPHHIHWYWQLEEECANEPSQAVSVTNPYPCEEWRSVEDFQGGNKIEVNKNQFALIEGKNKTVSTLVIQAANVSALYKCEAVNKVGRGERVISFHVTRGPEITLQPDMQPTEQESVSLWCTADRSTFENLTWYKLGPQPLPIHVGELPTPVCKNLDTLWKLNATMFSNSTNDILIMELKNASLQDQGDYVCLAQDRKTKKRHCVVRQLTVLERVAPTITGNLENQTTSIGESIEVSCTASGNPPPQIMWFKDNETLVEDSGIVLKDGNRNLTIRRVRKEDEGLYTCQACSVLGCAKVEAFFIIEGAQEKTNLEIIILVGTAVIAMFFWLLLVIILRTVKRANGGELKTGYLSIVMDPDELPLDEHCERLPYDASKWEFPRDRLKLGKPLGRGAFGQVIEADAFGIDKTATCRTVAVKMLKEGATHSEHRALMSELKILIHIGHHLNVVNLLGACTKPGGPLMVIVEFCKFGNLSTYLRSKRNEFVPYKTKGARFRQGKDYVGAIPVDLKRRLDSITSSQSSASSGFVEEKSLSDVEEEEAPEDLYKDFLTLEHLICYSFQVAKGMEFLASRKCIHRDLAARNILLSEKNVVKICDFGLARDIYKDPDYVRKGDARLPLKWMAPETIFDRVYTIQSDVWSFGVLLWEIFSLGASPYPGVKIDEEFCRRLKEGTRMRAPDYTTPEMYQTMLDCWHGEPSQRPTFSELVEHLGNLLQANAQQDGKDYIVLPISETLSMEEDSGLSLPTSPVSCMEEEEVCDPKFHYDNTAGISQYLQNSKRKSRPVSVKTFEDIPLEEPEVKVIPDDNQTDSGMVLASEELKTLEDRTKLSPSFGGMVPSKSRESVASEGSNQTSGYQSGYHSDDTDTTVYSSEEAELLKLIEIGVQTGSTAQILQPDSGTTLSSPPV
Briefly: VEGFR2 kinase assay, residual ATP luminescence. As to conditions: VEGFR2, poly(glu4tyr), 1.5 uM ATP, 60 minutes at 37 C; read-out: Vegfr IC50. How it is done: as §1, §3

The target in another assay is T5, human c-Src (Homo sapiens, UniProt P12931).
T5 construct: purchased Panvera/Invitrogen
T5 sequence (P12931 whole entry): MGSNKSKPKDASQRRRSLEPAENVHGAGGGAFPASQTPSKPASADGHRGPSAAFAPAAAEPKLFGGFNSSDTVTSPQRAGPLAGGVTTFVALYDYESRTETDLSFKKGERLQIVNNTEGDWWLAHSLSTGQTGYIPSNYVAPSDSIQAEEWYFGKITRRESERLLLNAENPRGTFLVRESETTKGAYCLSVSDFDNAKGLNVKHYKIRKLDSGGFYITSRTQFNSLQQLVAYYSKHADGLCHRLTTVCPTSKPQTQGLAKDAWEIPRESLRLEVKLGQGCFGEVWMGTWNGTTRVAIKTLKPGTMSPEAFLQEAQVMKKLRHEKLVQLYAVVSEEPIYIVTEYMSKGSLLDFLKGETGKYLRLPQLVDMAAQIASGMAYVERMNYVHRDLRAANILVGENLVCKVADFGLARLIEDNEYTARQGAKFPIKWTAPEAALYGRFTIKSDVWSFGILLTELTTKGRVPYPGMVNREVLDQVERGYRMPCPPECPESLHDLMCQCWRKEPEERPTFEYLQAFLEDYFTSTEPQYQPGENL
Briefly: Src kinase inhibition, luciferase-based residual ATP (KinaseGlo). As to conditions: recombinant human c-Src, ATP 3 μM, PTK2 substrate, 90 minutes at room temperature. How it is done: as §1, §2

For the next assay, the target named is T6, EphB4 (Homo sapiens, UniProt P54760).
T6 construct: purchased Upstate
T6 sequence (P54760 16-987): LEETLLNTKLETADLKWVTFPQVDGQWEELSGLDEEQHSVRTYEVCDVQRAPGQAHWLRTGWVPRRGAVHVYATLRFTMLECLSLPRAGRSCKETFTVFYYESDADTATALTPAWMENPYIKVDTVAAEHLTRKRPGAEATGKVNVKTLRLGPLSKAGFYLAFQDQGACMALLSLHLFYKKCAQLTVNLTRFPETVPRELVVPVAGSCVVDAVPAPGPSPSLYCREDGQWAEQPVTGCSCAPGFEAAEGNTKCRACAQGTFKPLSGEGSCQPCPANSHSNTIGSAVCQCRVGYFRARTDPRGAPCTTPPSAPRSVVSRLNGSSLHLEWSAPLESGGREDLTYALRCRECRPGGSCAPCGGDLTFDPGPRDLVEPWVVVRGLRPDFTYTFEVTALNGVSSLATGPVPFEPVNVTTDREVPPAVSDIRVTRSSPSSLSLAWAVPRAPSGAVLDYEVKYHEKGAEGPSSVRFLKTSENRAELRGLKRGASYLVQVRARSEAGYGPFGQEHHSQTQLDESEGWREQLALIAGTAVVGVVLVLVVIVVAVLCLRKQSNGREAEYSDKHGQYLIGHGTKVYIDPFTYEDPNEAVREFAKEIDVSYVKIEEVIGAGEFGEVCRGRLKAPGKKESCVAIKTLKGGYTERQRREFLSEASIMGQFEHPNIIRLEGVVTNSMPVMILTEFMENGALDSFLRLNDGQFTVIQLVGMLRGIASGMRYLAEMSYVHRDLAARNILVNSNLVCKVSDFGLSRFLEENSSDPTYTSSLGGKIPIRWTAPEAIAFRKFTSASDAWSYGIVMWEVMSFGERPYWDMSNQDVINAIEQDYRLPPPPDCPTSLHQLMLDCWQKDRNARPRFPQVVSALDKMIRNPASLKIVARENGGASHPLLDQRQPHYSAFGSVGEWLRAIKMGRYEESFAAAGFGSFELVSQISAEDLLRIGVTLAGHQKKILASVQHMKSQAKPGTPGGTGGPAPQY
In words: EphB4 kinase assay, residual ATP luminescence. As to conditions: poly(glu4tyr), 6 uM ATP, 60 minutes at 37 C. How it is done: as §1
EphB4 kinase activity was similarly measured, using the luciferase-based technique described above. 28.9 mU/well EphB4 (Upstate) was reacted with 1 mg/ml poly(glu4tyr), 6 uM ATP and test reagents. The reaction was incubated for 60 minutes at 37 C and the residual ATP concentration was measured.

pIC50: −log10 of the molar value.

T1 sequence (P07947 whole entry): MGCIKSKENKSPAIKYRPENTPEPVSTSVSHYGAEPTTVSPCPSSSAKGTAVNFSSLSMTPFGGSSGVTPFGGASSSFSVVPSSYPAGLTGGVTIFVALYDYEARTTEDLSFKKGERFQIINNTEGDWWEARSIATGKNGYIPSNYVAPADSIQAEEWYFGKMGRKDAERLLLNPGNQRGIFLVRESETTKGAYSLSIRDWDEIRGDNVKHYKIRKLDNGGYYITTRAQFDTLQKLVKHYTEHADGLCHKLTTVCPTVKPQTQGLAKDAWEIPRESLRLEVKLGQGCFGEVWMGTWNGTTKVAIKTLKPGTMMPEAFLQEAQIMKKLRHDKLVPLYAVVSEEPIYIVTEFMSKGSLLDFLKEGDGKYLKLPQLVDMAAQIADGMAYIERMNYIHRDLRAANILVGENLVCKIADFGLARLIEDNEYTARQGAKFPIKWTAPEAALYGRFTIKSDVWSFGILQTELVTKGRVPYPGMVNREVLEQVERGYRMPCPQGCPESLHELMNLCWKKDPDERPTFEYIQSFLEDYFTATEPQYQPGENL
T2 sequence (P11362 22-822, species assumed): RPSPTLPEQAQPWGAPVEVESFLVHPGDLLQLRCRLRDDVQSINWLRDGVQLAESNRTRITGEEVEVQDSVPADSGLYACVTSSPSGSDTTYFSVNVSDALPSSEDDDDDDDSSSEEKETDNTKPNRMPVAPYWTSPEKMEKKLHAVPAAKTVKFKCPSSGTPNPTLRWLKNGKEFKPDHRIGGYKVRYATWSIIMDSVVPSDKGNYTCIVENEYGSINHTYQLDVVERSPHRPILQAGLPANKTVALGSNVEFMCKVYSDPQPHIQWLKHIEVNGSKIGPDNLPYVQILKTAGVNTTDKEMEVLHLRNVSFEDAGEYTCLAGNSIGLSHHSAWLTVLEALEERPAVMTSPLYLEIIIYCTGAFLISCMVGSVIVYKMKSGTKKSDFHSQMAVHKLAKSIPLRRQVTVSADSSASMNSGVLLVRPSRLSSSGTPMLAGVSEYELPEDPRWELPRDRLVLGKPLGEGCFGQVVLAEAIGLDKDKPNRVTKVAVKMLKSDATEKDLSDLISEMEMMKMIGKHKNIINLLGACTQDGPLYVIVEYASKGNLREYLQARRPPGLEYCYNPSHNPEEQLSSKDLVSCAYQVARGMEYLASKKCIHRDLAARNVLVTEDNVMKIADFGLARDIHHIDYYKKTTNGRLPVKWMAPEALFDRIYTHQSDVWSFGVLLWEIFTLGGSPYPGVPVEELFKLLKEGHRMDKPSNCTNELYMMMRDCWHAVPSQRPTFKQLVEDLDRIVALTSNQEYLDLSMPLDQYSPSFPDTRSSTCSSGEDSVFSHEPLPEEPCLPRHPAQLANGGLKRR

As to `Clc1cccc(Cl)c1CNc1cnc(Nc2ccc(OCCN3CCCC3)cc2)nc1`, the pIC50 was 7.40 on human Yes, 5.28 on FGFR1, 7.29 at PDGFRb and 6.04 on VEGFR2.

For `O=C(Nc1cnc(Nc2ccc(CCCN3CCCC3)cc2)nc1)c1c(Cl)cccc1Cl`, the pIC50 is 7.59 on human Yes, under 5.00 against FGFR1, 6.69 on PDGFRb and under 5.00 at VEGFR2.

Take `O=C(NCCN1CCCC1)c1ccc(Nc2ncc(NC(=O)c3cc(O)ccc3Cl)cn2)cc1` [XXV, 2-Chloro-5-hydroxy-N-{2-[4-(2-pyrrolidin-1-yl-ethylcarbamoyl)-phenylamino]-pyrimidin-5-yl}-benzamide]: on human c-Src, the pIC50 is 8.07.

Take `Cc1c(O)cccc1C(=O)Nc1cnc(Nc2ccc(C(=O)NCCN3CCCC3)cc2)nc1` [XXVII, 3-Hydroxy-2-methyl-N-{2-[4-(2-pyrrolidin-1-yl-ethylcarbamoyl)-phenylamino]-pyrimidin-5-yl}-benzamide]: the negative logarithm of the IC50 (pIC50) at human c-Src was 6.67.

On to `O=C(NCCN1CCCC1)c1ccc(Nc2ncc(NC(=O)c3c(Cl)cccc3Cl)cn2)cc1` [XXVIII, 2,6-Dichloro-N-{2-[4-(2-pyrrolidin-1-yl-ethylcarbamoyl)-phenylamino]-pyrimidin-5-yl}-benzamide], for which the pIC50 on human c-Src is 7.22.

For `O=C(Nc1cc(O)ccc1Cl)c1cnc(Nc2ccc(OCCN3CCCC3)cc2)nc1C(F)(F)F` [XXX, 2-[4-(2-Pyrrolidin-1-yl-ethoxy)-phenylamino]-4-trifluoromethyl-pyrimidine-5-carboxylic acid (2-chloro-5-hydroxy-phenyl)-amide], the pIC50 at human c-Src is 5.87.

`N#Cc1cccc(C(=O)Nc2cnc(Nc3ccc(S(=O)(=O)CCCN4CCCC4)cc3)nc2)c1` [XXXI, 3-Cyano-N-{2-[4-(3-pyrrolidin-1-yl-propane-1-sulfonyl)-phenylamino]-pyrimidin-5-yl}-benzamide]: the pIC50 at human c-Src was under 5.00.

With `O=C(Nc1cnc(Nc2ccc(S(=O)(=O)CCCN3CCCC3)cc2)nc1)c1cc(O)ccc1Cl` [XXXII, 2-Chloro-5-hydroxy-N-{2-[4-(3-pyrrolidin-1-yl-propane-1-sulfonyl)-phenylamino]-pyrimidin-5-yl}-benzamide], on human c-Src, the negative logarithm of the IC50 (pIC50) is 8.01.

Consider `Cc1c(O)cccc1C(=O)Nc1cnc(Nc2ccc(S(=O)(=O)CCCN3CCCC3)cc2)nc1` [XXXIII, 3-Hydroxy-2-methyl-N-{2-[4-(3-pyrrolidin-1-yl-propane-1-sulfonyl)-phenylamino]-pyrimidin-5-yl}-benzamide], for which, at human c-Src, the negative-log IC50 (pIC50) is 6.47.

`O=C(Nc1cnc(Nc2ccc(S(=O)(=O)CCCN3CCCC3)cc2)nc1)c1c(Cl)cccc1Cl` [XXXIV, 2,6-Dichloro-N-{2-[4-(3-pyrrolidin-1-yl-pronane-1-sulfonyl)-phenylamino]-pyrimidin-5-yl}-benzamide]: on human c-Src, the negative logarithm of the IC50 (pIC50) is 6.92.

`Cc1cccc(C)c1C(=O)Nc1cnc(Nc2ccc(OCCN3CCCC3)cc2)nc1` [XXXIX, N-(2-(4-(2-(Pyrrolidin-1-yl)ethoxy)phenylamino)pyrimidin-5-yl)-2,6-dimethyl-benzamide]: the pIC50 at human c-Src is 6.98.

`O=C(Nc1cnc(Nc2ccc(S(=O)(=O)CCCN3CCCC3)cc2)nc1)c1ccc(O)cc1Cl` [XXXV, 2-Chloro-4-hydroxy-N-{2-[4-(3-pyrrolidin-1-yl-propane-1-sulfonyl)-phenylamino]-pyrimidin-5-yl}-benzamide]: the negative-log IC50 (pIC50) on human c-Src was 6.34.

On to `O=C(Nc1cnc(Nc2ccc(S(=O)(=O)CCCN3CCCC3)cc2)nc1)c1cccc(O)c1` [XXXVI, 3-Hydroxy-N-{2-[4-(3-pyrrolidin-1-yl-propane-1-sulfonyl)-phenylamino]-pyrimidin-5-yl}-benzamide], for which the pIC50 at human c-Src was 5.83.

For `O=C(Nc1cnc(Nc2ccc(S(=O)(=O)CCCN3CCCC3)cc2)nc1)c1cc(Cl)ccc1Cl` [XXXVII, 2,5-Dichloro-N-{2-[4-(3-pyrrolidin-1-yl-propane-1-sulfonyl)-phenylamino]-pyrimidin-5-yl}-benzamide], the pIC50 on human c-Src was 5.76.

Consider `O=C(Nc1cnc(Nc2ccc(OCCN3CCCC3)cc2)nc1)c1cc(O)ccc1Cl` [XXXVIII, N-(2-(4-(2-(Pyrrolidin-1-yl)ethoxy)phenylamino)pyrimidin-5-yl)-2-chloro-5-hydroxybenzamide], for which, on human c-Src, the negative-log IC50 (pIC50) was 7.57.

As to `O=C(Nc1cnc(Nc2ccc(OCCN3CCCC3)cc2)nc1)c1cc(O)ccc1Cl` [drawing 200], the pIC50 at human Yes was 7.59; at EphB4 it was 6.70; against FGFR1, 4.70; on PDGFRb, 7.70; on VEGFR2, 6.25.

Consider `O=C(Nc1cnc(Nc2cccc(OCCN3CCCC3)c2)nc1)c1cc(O)ccc1Cl` [drawing 201], for which the negative logarithm of the IC50 (pIC50) is 8.00 at human Yes; 6.96 against EphB4; 5.14 on FGFR1; 7.89 at PDGFRb; 5.90 at VEGFR2.

For the compound `O=C(Nc1cnc(Nc2cccc(OCCN3CCCC3)c2)nc1)c1c(Cl)cccc1Cl` [drawing 202], the negative-log IC50 (pIC50) was 8.10 on human Yes; 6.36 against EphB4; under 5.00 on FGFR1; 6.74 on PDGFRb; under 5.00 at VEGFR2.

Regarding `O=C(Nc1cnc(Nc2ccc(S(=O)(=O)NCCN3CCCC3)cc2)nc1)c1cc(O)ccc1Cl` [drawing 203], the pIC50 on human Yes is 9.10; against FGFR1, 5.28; on VEGFR2 it was 6.49.

Regarding `O=C(Nc1cnc(Nc2ccc(C(=O)N3CCNCC3)cc2)nc1)c1cc(O)ccc1Cl` [drawing 205], the negative-log IC50 (pIC50) was 8.72 on human Yes, 5.27 on FGFR1 and 6.51 at VEGFR2.

Turning to `O=C(Nc1cnc(Nc2ccc(S(=O)(=O)CCCN3CCCC3)cc2)nc1)c1cc(O)ccc1Cl` [drawing 206], the pIC50 on human Yes was 8.43; at FGFR1, 5.12; on VEGFR2, 6.45.

As to `CN1CCN(C(=O)c2ccc(Nc3ncc(NC(=O)c4cc(O)ccc4Cl)cn3)cc2)CC1` [drawing 207], the pIC50 was 8.00 at human Yes, 5.03 at FGFR1 and 6.44 at VEGFR2.

Take `O=C(NCCN1CCCC1)c1csc(Nc2ncc(NC(=O)c3cc(O)ccc3Cl)cn2)n1` [drawing 209]: the pIC50 at human Yes was 7.72; against FGFR1 it was 5.68; at VEGFR2, 6.21.

For `Clc1cccc(Cl)c1CNc1cnc(Nc2cccc(OCCN3CCCC3)c2)nc1` [drawing 211], the pIC50 is 8.22 on human Yes, 6.72 at EphB4, under 5.00 against FGFR1 and 6.86 on VEGFR2.
